Series [1] in a line: Plasma profiles of Compound 2 metabolites in monkeys. To be noted: cynomolgus monkey, plasma, po. The format is in vivo, cynomolgus monkeys.
The nature of series [2]: Single ascending dose study of Compound 2 in healthy volunteers (Part A): safety, tolerability, pharmacokinetic. The format is in vivo, human. To be noted: both sexes, human, in vivo. Here is the method: Compound 2 was tested in a single ascending dose (SAD) study to measure its safety, tolerability, and pharmacokinetic in healthy subjects (Part A). Part A was a randomized, double-blind, placebo-controlled SAD study. Healthy subjects in Part A received a single dose of Compound 2 or placebo in the fasting state. Subjects were confined to the clinic from Day −1 to Day 6.
Dosing in each cohort was staggered such that 2 subjects (1 active:1 placebo) were evaluated for 48 hours after dosing before the remainder of the cohort was dosed. Each cohort received Compound 2 in ascending order. Dosing of sequential cohorts occurred based on review of available safety data (through Day 5) and plasma pharmacokinetic data (through 24 h) of the prior cohort.
As pharmacokinetic and safety data emerged from prior cohorts, doses evaluated in Cohorts 3a-4a were adjusted by increments no more than 100 mg.
Healthy volunteers in the Part A portion of the study were male and female subjects between the ages of 18 and 65. Active and placebo recipients were pooled within each Part A cohort to preserve the study blind.
(§1) Pharmacokinetic of Compound 1 and nucleoside metabolite 1-7 were measured following the single dose of Compound 2. […] Values are reported as mean±SD, except or Tmax where median (range) is reported.

Series [3] is described as follows: Head-to-head comparison of plasma levels in dogs dosed with Compound 1 and Compound 2. The format is in vivo, dog. Conditions: dosed Compound 1 25 mg/kg or Compound 2 30 mg/kg, normalized to a dose of 25 mg/kg. Here is the method:
A head-to-head comparison of dogs dosed with Compound 1 and Compound 2 was conducted.

Another series can be described thus: in vitro. Conditions: rat.
A short description of series [4]: Plasma profiles of Compound 2 metabolites in rats. Conditions: male, Sprague-Dawley, rat, plasma, po, 500 mg/kg. Here is the method:
The results for a single 500 mg/kg dose in rats is shown in FIG. 17 and the results for a single 30, 100, or 300 mg/kg dose in monkeys is shown in FIG. 18.

Series [5] in a line: Solubility in biorelevant test medias (water, SGF, FaSSIF, FeSSIF).
The nature of series [6]: Single ascending dose study of Compound 2 in GT1-HCV infected patients (Part B): safety, tolerability, pharmacokinetic. Conditions: for AUC / Cmax / half-life: mean±SD. In kind it is in vivo, human. Here is the method: Subjects in Part B received a single dose of Compound 2 in the fasting state. Patients were confined to the clinic from Day −1 to Day 6.
Part B was initiated after the safety (through Day 5) and plasma pharmacokinetic (through 24 h) data review from Cohort 3a in Part A. Available safety data (through Day 5) and pharmacokinetic data (through 24 h) was reviewed for the first cohort in Part B (Cohort 1b) before enrolling subsequent Part B cohorts. Subsequent Part B cohorts were only dosed following review of available safety and pharmacokinetic data from the respective doses in Part A as well as available safety (through Day 5) from the prior Part B cohorts.
Patients infected with HCV were treatment-naïve, non-cirrhotic GT1-infected subjects with a viral load of ≥5 log10 IU/mL.
as §1
Plasma exposure of Compound 1 was dose-related while exposure of metabolite 1-7 was dose-proportional.

For series [7], the system named is replicons containing the NS5B sequences from HCV patient plasma samples (GT1a, 1b, 2a, 2b, 3a-1, 3a-2, 4a and 4d). The series is described as follows: Replicons containing NS5B sequences from HCV patient plasma samples (clinical isolates). In kind it is cell-based. Conditions: clinical isolates of GT1, GT2, GT3, and GT4, FIG. 24. (A replicon is a self-replicating genome or part of one, used to study replication in cells.)

For series [8], the target named is human mitochondrial RNA-dependent RNA polymerase (POLRMT) (Homo sapiens, UniProt O00411). The series can be described thus: Incorporation of nucleotide analog triphosphates by human mitochondrial RNA polymerase. The format is biochemical. Here is the method:
The incorporation of these analogs by human mitochondrial RNA-dependent RNA polymerase (POLRMT) were determined according to Arnold et al. (Sensitivity of Mitochondrial Transcription and Resistance of RNA Polymerase II Dependent Nuclear Transcription to Antiviral Ribonucleotides. PLoS Pathog., 2012, 8, e1003030).

A further series concerns HCV RNA (GT1a HCV). Conditions: after 1 day of 400 mg monotherapy, GT1a HCV-infected subjects; cited from earlier work.
For series [9] the following is noted: sofosbuvir 400 mg QD; cited from earlier work.
The mark [10] stands for this setting: human, in vivo, 100 mg, GT1-HCV infected patients, Compound 2 100 mg.
The mark [11] stands for this setting: human, in vivo, 300 mg, GT1-HCV infected patients, Compound 2 300 mg (first 300 mg line).
[12] abbreviates: human, in vivo, 300 mg, GT1-HCV infected patients, Compound 2 300 mg (second 300 mg line).
[13] abbreviates: human, in vivo, 400 mg, GT1-HCV infected patients, Compound 2 400 mg.
The mark [14] stands for this setting: human, in vivo, 600 mg, GT1-HCV infected patients, Compound 2 600 mg.
The mark [15] stands for this setting: incorporation by human mitochondrial RNA polymerase.

In general, AUC(0-t) refers to exposure summed from dosing to a finite time, without extrapolation to infinity. As usually defined, the Cmax is the highest concentration seen after dosing. As usually defined, the AUC is the area under the concentration-time curve, a measure of exposure. Broadly, the half-life is the time in which the quantity being followed falls by half. Read a low half-life as fast loss.

Sequence of human mitochondrial RNA-dependent RNA polymerase (POLRMT) (O00411 42-1230): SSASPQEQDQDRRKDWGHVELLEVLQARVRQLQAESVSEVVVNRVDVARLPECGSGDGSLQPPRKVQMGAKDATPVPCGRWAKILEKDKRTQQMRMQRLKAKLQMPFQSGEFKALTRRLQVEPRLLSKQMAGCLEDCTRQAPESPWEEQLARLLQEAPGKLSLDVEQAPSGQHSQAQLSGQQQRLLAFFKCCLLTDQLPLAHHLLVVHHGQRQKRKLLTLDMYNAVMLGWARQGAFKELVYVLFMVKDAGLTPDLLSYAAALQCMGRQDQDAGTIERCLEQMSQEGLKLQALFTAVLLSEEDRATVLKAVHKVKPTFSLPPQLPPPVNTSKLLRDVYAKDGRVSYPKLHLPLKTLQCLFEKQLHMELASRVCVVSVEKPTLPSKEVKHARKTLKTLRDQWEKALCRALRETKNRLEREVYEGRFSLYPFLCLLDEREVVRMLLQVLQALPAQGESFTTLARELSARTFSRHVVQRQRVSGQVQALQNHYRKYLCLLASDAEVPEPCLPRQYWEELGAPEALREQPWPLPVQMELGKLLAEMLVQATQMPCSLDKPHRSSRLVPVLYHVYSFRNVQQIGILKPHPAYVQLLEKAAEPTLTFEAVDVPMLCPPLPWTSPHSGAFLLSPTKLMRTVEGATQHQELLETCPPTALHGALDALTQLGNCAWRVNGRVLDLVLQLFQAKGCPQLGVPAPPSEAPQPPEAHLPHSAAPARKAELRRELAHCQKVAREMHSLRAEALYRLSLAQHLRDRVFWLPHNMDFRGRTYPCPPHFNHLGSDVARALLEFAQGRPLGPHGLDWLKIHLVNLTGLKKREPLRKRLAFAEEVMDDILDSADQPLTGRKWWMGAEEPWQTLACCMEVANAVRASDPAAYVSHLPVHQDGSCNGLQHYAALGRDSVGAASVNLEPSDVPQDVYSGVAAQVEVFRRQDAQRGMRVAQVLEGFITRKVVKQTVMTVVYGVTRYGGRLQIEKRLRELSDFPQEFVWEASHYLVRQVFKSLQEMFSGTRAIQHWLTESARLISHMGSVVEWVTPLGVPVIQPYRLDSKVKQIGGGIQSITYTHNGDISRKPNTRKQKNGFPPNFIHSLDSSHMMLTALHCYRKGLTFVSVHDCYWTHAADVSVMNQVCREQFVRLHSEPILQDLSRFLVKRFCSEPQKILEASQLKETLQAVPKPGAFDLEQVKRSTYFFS

Consider `CNc1nc(N)nc2c1ncn2[C@@H]1O[C@H](CO[P@@](=O)(N[C@@H](C)C(=O)OC(C)C)Oc2ccccc2)[C@@H](O)[C@@]1(C)F` [Compound 1, isopropyl((S)-(((2R,3R,4R,5R)-5-(2-Amino-6-(methylamino)-9H-purin-9-yl)-4-fluoro-3-hydroxy-4-methyltetrahydrofuran-2-yl)methoxy)(phenoxy)phosphoryl)-L-alaninate], for which the AUC(0-t) in [1] (30 mg/kg) is 176 ng·h/mL; in series [1] (100 mg/kg) it was 1100 ng·h/mL; in series [1] (300 mg/kg), 1600 ng·h/mL; in series [4], 78.2 ng·h/mL. Besides, the Cmax in [1] (30 mg/kg) turned out to be 63.5 ng/mL; in [1] (100 mg/kg) it was 783 ng/mL; in [1] (300 mg/kg), 501 ng/mL; in [2] (50 mg) it was 46.4 ± 17.6 ng/mL; in series [2] (100 mg), 156 ± 96.3 ng/mL; in series [2] (200 mg) it was 818 ± 443 ng/mL. Further, the Cmax in series [2] (400 mg) came out at 1190 ± 401 ng/mL; in series [4] it was 60.8 ng/mL; in series [6] (setting [10]), 212 ± 32 ng/mL; in [6] (setting [11]), 871 ± 590 ng/mL; in series [6] (setting [12]), 2280 ± 893 ng/mL; in series [6] (setting [13]), 2680 ± 2110 ng/mL. The compound further registered a Cmax in [6] (setting [14]) of 3540 ± 1650 ng/mL. The Tmax in series [1] (30 mg/kg) was 30 to 120 min; in series [1] (100 mg/kg) it was 60 to 120 min; in [2] (50 mg), 30 min; in series [2] (100 mg), 30 min; in series [2] (200 mg) it was 30 min; in series [2] (400 mg), 30 min. Further, the Tmax in [4] is 15 min; in series [6] (GT1-HCV infected patients, Compound 2 300 mg (second 300 mg line), median (range)), 0.5 (0.5-1.0) h; in series [6] (human, in vivo, 100 mg, read-out: Tmax), 30 min; in series [6] (human, in vivo, 300 mg, read-out: Tmax), 30 min; in series [6] (human, in vivo, 400 mg, read-out: Tmax), 60 min; in series [6] (human, in vivo, 600 mg, read-out: Tmax) it was 60 min. The AUC in series [2] (50 mg) stood at 36.4 ± 12.3 ng·h/mL; in series [2] (100 mg), 167 ± 110 ng·h/mL; in series [2] (200 mg), 656 ± 255 ng·h/mL; in series [2] (400 mg) it was 1110 ± 326 ng·h/mL; in series [6] (setting [10]) it was 179 ± 54.4 ng·h/mL; in [6] (setting [11]), 818 ± 475 ng·h/mL. In addition, the AUC in series [6] (setting [12]) was 1860 ± 1020 ng·h/mL; in [6] (setting [13]) it was 2410 ± 1010 ng·h/mL; in series [6] (setting [14]), 4130 ± 1130 ng·h/mL. Besides, the half-life is 19.2 ± 1.2 min in series [2] (50 mg); 31.8 ± 14.4 min in series [2] (100 mg); 42.6 ± 9.6 min in series [2] (200 mg); 51.6 ± 9 min in series [2] (400 mg); < 2 min in the series “in vitro”; 32.4 ± 7.2 min in series [6] (setting [10]). Besides, the half-life is 38.4 ± 12 min in [6] (setting [11]), 50.4 ± 10.8 min in series [6] (setting [12]), 51.6 ± 10.8 min in series [6] (setting [13]) and 42 ± 7.8 min in series [6] (setting [14]). Further, the “Mean Dose-normalized AUC(0-4hr) for Compound 1” value in [3] was 0.2 µM·h. The “Appearance in solubility test” value in series [5] (FaSSIF) was “Turbid”; in series [5] (FeSSIF), “Turbid”; in series [5] (SGF), “Clear Solution”; in series [5] (Water), “Clear Solution*”. Also, the Solubility descriptive term entry in [5] (FaSSIF) was “Slightly Soluble”; in [5] (FeSSIF) it was “Slightly Soluble”; in series [5] (SGF) it was “Sparingly”; in series [5] (Water), “Slightly Soluble”. In addition, the EC95 result in [7] is on record as “less than 25 ng/mL”.
The compound `CC1(F)C(O)C(COP(=O)(O)OP(=O)(O)OP(=O)(O)O)OC1n1ccc(=O)[nH]c1=O` (stereo not shown) [2’-deoxy-2’-F-2’-C-methyl UTP] displayed a Kpol in series [8] (setting [15]) of 0.00034 s⁻¹.
In the case of `C[C@@]1(F)[C@H](O)[C@@H](COP(=O)(O)OP(=O)(O)OP(=O)(O)O)O[C@H]1n1cnc2c(=O)[nH]c(N)nc21` [Metabolite 1-6], the “Incorporation of active triphosphate by human mitochondrial RNA polymerase” value in [8] was “poorlyincorporated”. Besides, the “Relative Efficiency” value in series [8] ((Kpol/Kd,app)analog nucleotide/(Kpol/Kd,app)natural nucleotide) is given as 2.2 × 10^−6. In addition, in [8] (setting [15]), the Kpol was 0.0017 s⁻¹ and the “Kpol/Kd,app” value came out at 8.3 M⁻¹ s⁻¹. In series [8] (incorporation by human mitochondrial RNA polymerase, read-out: Kd,app), the Kd was found to be 204 µM.
For the compound `C[C@@]1(O)[C@H](O)[C@@H](COP(=O)(O)OP(=O)(O)OP(=O)(O)O)O[C@H]1n1cnc2c(=O)[nH]c(N)nc21` [2'-C-methyl GTP], the Kpol in [8] (setting [15]) is 0.051 s⁻¹.
As to `CC(C)OC(=O)[C@H](C)N[P@](=O)(OC[C@H]1O[C@@H](n2ccc(=O)[nH]c2=O)[C@](C)(F)[C@@H]1O)Oc1ccccc1` [sofosbuvir], the “HCV RNA reduction” value in the series with HCV RNA (GT1a HCV) is recorded as 2 log10 IU/mL. The “Steady-state trough concentration (C24,ss) of the nucleoside metabolite” value in series [9] is recorded as “approximately 100 ng/mL”.

Source of the values: patent US20210087217A1, “NUCLEOTIDE HEMI-SULFATE SALT FOR THE TREATMENT OF HEPATITIS C VIRUS” (Atea Pharmaceuticals, Inc., priority 2017, published 2021).
